These molecules were tested on rat adipocytes (assay: Evaluation of sugar transport activity (2-[14C(U)]-deoxy-D-glucose incorporation)). Settings: enhancement action of insulin (100 nM) taken as 100%, 30 min preculture at 37° C.
Type: cell-based
Experimental: Three male Wistar rats (6 to 7 weeks old) were bled by decapitation, and then laparotomized to extract 3 g of paratesticular fat tissue. […] An amount of 8 mg of collagenase (Type I) was added to carry out digestion treatment for 35 minutes, and undigested fragments were eliminated with a nylon mesh to obtain approximately 3 ml of isolated adipocytes. Collagenase was eliminated by buffer exchange, then, 2% BSA/KRH solution was added for re-suspension to obtain 15 ml of adipocyte suspension. The evaluation of sugar transport activity of the compound of the present invention was carried out with the methods described in the literature (Annual Review of Biochemistry, Volume 55, Page 1059, 1986) as a reference. That is to say, the above adipocyte suspension was distributed into polystyrene test tube, 200 μl each, 100 μl of solution of test substance (10 mg/ml of dimethylsulfoxide solution diluted with KRH) was added, and cultured while shaking at 37° C. for 30 minutes.

Molecule | EC50 (concentration of test compound corresponding to 50% enhancement action of sugar transport)
O=C1NCC2=C1[C@@H](c1cccc3ccoc13)N(C(=O)C(F)F)[C@@H]1CCCC[C@H]1N2 [Example 6] | 0.58 µg/mL
COCC(=O)N1[C@@H]2CCCC[C@H]2NC2=C(C(=O)NC2)[C@H]1c1cccc2cc(C)[nH]c12 [Example 12] | 0.63 µg/mL
O=C1NCC2=C1[C@@H](c1cccc3c1OCC3)N(C(=O)CO)[C@@H]1CCCC[C@H]1N2 [Example 13] | 0.90 µg/mL
O=C1NCC2=C1[C@@H](c1cccc3cccnc13)N(C(=O)C(F)F)[C@@H]1CCCC[C@H]1N2 [Example 17] | 0.59 µg/mL
CSc1ccsc1[C@@H]1C2=C(CNC2=O)N[C@@H]2CCCC[C@H]2N1C(=O)CO [Example 18] | 3.1 µg/mL
Cc1cc2cccc([C@@H]3C4=C(CNC4=O)N[C@@H]4CCCC[C@H]4N3C(=O)CO)c2o1 [Example 9] | 0.92 µg/mL
Cc1cc2cccc([C@@H]3C4=C(CNC4=O)N[C@@H]4CCCC[C@H]4N3C(=O)CO)c2[nH]1 [Example 11] | 0.73 µg/mL
O=C1NCC2=C1[C@@H](c1cccc3ccnn13)N(C(=O)CO)[C@@H]1CCCC[C@H]1N2 [Example 14] | 1.3 µg/mL
O=C1NCC2=C1[C@@H](c1cccc3cccnc13)N(C(=O)CO)[C@@H]1CCCC[C@H]1N2 [Example 16] | 1.36 µg/mL
O=C1NCC2=C1[C@@H](c1cccc3ccoc13)N(C(=O)CO)[C@@H]1CCCC[C@H]1N2 [Example 1] | 0.65 µg/mL
O=C1NCC2=C1[C@@H](c1cccc3ccoc13)N(C(=O)C(F)(F)F)[C@@H]1CCCC[C@H]1N2 [Example 7] | 1.94 µg/mL
O=C1NCC2=C1[C@@H](c1cccc3ccsc13)N(C(=O)CO)[C@@H]1CCCC[C@H]1N2 [Example 8] | 0.61 µg/mL
C=Cc1ccccc1[C@@H]1C2=C(CNC2=O)N[C@@H]2CCCC[C@H]2N1C(=O)CO [Example 19] | 0.45 µg/mL
COCC(=O)N1[C@@H]2CCCC[C@H]2NC2=C(C(=O)NC2)[C@H]1c1cccc2cc[nH]c12 [Example 5] | 0.26 µg/mL

Same assay, conditions: insulin 100 nM

Molecule | sugar transport enhancement action compared to non-insulin added control group
insulin | 3-9 times

These molecules were tested on C57BL/KsJ-db/dbJcl mice (assay: Evaluation of hypoglycemic action in pathologic mouse). Settings: 3 mg/kg single oral administration, 120 minutes after administration, fasted 20 hours.
Type: in vivo
Experimental: (§1) C57BL/KsJ-db/dbJcl mice (8 to 9 weeks old) or GK/Jcl rats fasted for 20 hours were administered with the test compound by a single oral administration, blood was collected from the tail vein immediately before administration and 30, 60, 120 and 180 minutes after administration, and the blood glucose level was measured with Fuji DryChem5500 (glucose oxidase method). For the test animals, a group comprised 4 to 5 subjects, and the blood glucose level was determined as mean values. The test compound was administered by dissolving in an aqueous solution of 50% polyethyleneglycol 400, or 100% polyethyleneglycol 400.
(§2) The degrees of hypoglycemia calculated based on the blood glucose levels measured according to the methods described above are shown in Table 5 (mouse) and Table 6 (rat). The degree of hypoglycemia was calculated as the percentage of the difference between the blood glucose level at one time point 120 minutes after administration and blood glucose level immediately before administration, with respect to the blood glucose level immediately before administration.

Molecule | Degree of hypoglycemia
CSc1ccsc1[C@@H]1C2=C(CNC2=O)N[C@@H]2CCCC[C@H]2N1C(=O)CO [Example 18] | 21%
O=C1NCC2=C1[C@@H](c1cccc3cccnc13)N(C(=O)CO)[C@@H]1CCCC[C@H]1N2 [Example 16] | 12%
O=C1NCC2=C1[C@@H](c1cccc3ccoc13)N(C(=O)CO)[C@@H]1CCCC[C@H]1N2 [Example 1] | 4%
O=C1NCC2=C1[C@@H](c1cccc3ccsc13)N(C(=O)CO)[C@@H]1CCCC[C@H]1N2 [Example 8] | 26%
C=Cc1ccccc1[C@@H]1C2=C(CNC2=O)N[C@@H]2CCCC[C@H]2N1C(=O)CO [Example 19] | 31%
COCC(=O)N1[C@@H]2CCCC[C@H]2NC2=C(C(=O)NC2)[C@H]1c1cccc2cc[nH]c12 [Example 5] | 28%

Same assay, conditions: 10 mg/kg single oral administration, 120 minutes after administration, fasted 20 hours

Molecule | Degree of hypoglycemia
CSc1ccsc1[C@@H]1C2=C(CNC2=O)N[C@@H]2CCCC[C@H]2N1C(=O)CO [Example 18] | 41%
O=C1NCC2=C1[C@@H](c1cccc3cccnc13)N(C(=O)CO)[C@@H]1CCCC[C@H]1N2 [Example 16] | 36%
O=C1NCC2=C1[C@@H](c1cccc3ccoc13)N(C(=O)CO)[C@@H]1CCCC[C@H]1N2 [Example 1] | 51%
O=C1NCC2=C1[C@@H](c1cccc3ccsc13)N(C(=O)CO)[C@@H]1CCCC[C@H]1N2 [Example 8] | 23%
C=Cc1ccccc1[C@@H]1C2=C(CNC2=O)N[C@@H]2CCCC[C@H]2N1C(=O)CO [Example 19] | 36%
COCC(=O)N1[C@@H]2CCCC[C@H]2NC2=C(C(=O)NC2)[C@H]1c1cccc2cc[nH]c12 [Example 5] | 41%

The molecules below were run on GK/Jcl rats (assay: Evaluation of hypoglycemic action in pathologic rat). Settings: 3 mg/kg single oral administration, 120 minutes after administration, fasted 20 hours.
Type: in vivo
Experimental: as §1, §2

Molecule | Degree of hypoglycemia
Cc1cc2cccc([C@@H]3C4=C(CNC4=O)N[C@@H]4CCCC[C@H]4N3C(=O)CO)c2o1 [Example 9] | 30%

Same assay, conditions: 10 mg/kg single oral administration, 120 minutes after administration, fasted 20 hours

Molecule | Degree of hypoglycemia
COCC(=O)N1[C@@H]2CCCC[C@H]2NC2=C(C(=O)NC2)[C@H]1c1cccc2cc(C)[nH]c12 [Example 12] | 34%
O=C1NCC2=C1[C@@H](c1cccc3cccnc13)N(C(=O)C(F)F)[C@@H]1CCCC[C@H]1N2 [Example 17] | 35%
Cc1cc2cccc([C@@H]3C4=C(CNC4=O)N[C@@H]4CCCC[C@H]4N3C(=O)CO)c2o1 [Example 9] | 37%
O=C1NCC2=C1[C@@H](c1cccc3ccnn13)N(C(=O)CO)[C@@H]1CCCC[C@H]1N2 [Example 14] | 36%

What follows are molecules tested on MDCK cells (assay: not given). Settings: dog.

Molecule | Permeation coefficient
O=C1NCC2=C1[C@@H](c1cccc3cccnc13)N(C(=O)C(F)F)[C@@H]1CCCC[C@H]1N2 [Example 17] | 10 10^−7 cm/sec
O=C1NCC2=C1[C@@H](c1cccc3cccnc13)N(C(=O)CO)[C@@H]1CCCC[C@H]1N2 [Example 16] | 9 10^−7 cm/sec

Each molecule was assayed on MDCK cells (assay: Evaluation of membrane permeability using MDCK cells). Settings: MDCK monolayer; mucous membrane side (pH 6.5) to basal membrane side (pH 7.4); 37° C.
Experimental: The compound of the present invention was evaluated for membrane permeability using MDCK cells, according to the method below.
An epithelial cell line derived from dog renal tubule, MDCK (Madin Darby Canine Kidney cell line), is cultured for 3 to 4 days in a flask containing 10% FBS-added D-MEM/F12 culture medium (Manufactured by Gibco) at 37° C. in a carbon dioxide incubator. The cells are detached from the flask with a Trypsin/EDTA solution (Manufactured by Gibco), and unicellularized by pipetting. The cells are suspended in the same medium as described above and placed in a transwell (mucous membrane-side well) of a Transwell plate (manufactured by COSTAR) at 2×10^5 cell/well in a volume of 0.1 ml. The transwell is transferred to the basal membrane-side well where 0.6 ml of the same culture medium has been placed, and the cells are cultured at 37° C. in a carbon dioxide incubator for 3 days. After the culture, the culture media in the mucous membrane-side well and the basal membrane-side well are exchanged for the same culture medium, incubated under the same condition for one day. Thus, satisfactory MDCK monolayer culture cells are obtained.
During in vitro permeation-absorption experiments, the culture media are eliminated from both wells, the mucous membrane-side well is washed with PBS buffer solution (pH 6.5), and the basal membrane-side well is washed with PBS buffer solution (pH 7.4). Next, 0.1 ml of PBS buffer solution (pH6.5) is added to the mucous membrane-side well, 0.6 ml of PBS buffer solution (pH 7.4) is added to the basal membrane-side well, and equilibration is carried out by incubating for 15 minutes in a 37° C. incubator.
The mucous membrane-side well is exchanged for 0.1 ml of a solution containing the test substance prepared with PBS buffer solution (pH6.5), and time point when the well is transferred to the basal membrane-side well substituted with 0.6 ml of PBS buffer solution (pH7.4) is taken as the permeation-absorption start time, and thereafter, sampling is performed from the basal membrane-side well over time. The amounts of test substance in the samples sampled in this way are measured by HPLC analysis, and the amount of the substance permeated and absorbed from the mucous membrane side to the basal membrane side according to the reaction time is determined to determine the permeation coefficient (cm/sec).

Molecule | Permeation coefficient
O=C1NCC2=C1[C@@H](c1cccc3ccoc13)N(C(=O)C(F)F)[C@@H]1CCCC[C@H]1N2 [Example 6] | 8 10^−7 cm/sec
COCC(=O)N1[C@@H]2CCCC[C@H]2NC2=C(C(=O)NC2)[C@H]1c1cccc2cc(C)[nH]c12 [Example 12] | 20 10^−7 cm/sec
Cc1cc2cccc([C@@H]3C4=C(CNC4=O)N[C@@H]4CCCC[C@H]4N3C(=O)CO)c2o1 [Example 9] | 40 10^−7 cm/sec
O=C1NCC2=C1[C@@H](c1cccc3ccoc13)N(C(=O)CO)[C@@H]1CCCC[C@H]1N2 [Example 1] | 8 10^−7 cm/sec
C=Cc1ccccc1[C@@H]1C2=C(CNC2=O)N[C@@H]2CCCC[C@H]2N1C(=O)CO [Example 19] | 10 10^−7 cm/sec
COCC(=O)N1[C@@H]2CCCC[C@H]2NC2=C(C(=O)NC2)[C@H]1c1cccc2cc[nH]c12 [Example 5] | 20 10^−7 cm/sec
